Test results reported in patent publication US7435801B2, “Antibodies and other ligands directed against KIR2DL4 receptor for production of interferon gamma” (The United States of America, as represented by the …, priority 2000, dated 2008).

Tests used:
[1] = tested on: IL-2-mediated induction of IFN-gamma production; test: MAPK inhibitors on rIL-2-induced IFN-gamma release by resting NK cells; format: cell-based, human; settings: rIL-2 5 U/ml, 20 h
[2] = tested on: 2DL4-induced production of IFN-gamma; test: MAPK inhibitors on anti-2DL4 mAb-induced IFN-gamma secretion by resting NK cells; format: cell-based, human

Structure (SMILES): C[S+]([O-])c1ccc(-c2nc(-c3ccncc3)c(-c3ccc(F)cc3)[nH]2)cc1 (stereo not shown) [SB203580]
- effect on IL-2-mediated induction of IFN-gamma production ([1]; concentration not given): unaffected
- inhibition of 2DL4-induced IFN-gamma production ([2]; 1 μM inhibitor): Complete inhibition

Structure (SMILES): COc1cccc(-c2cc(=O)c3ccccc3o2)c1N [PD98059]
- inhibition of IL-2-mediated induction of IFN-gamma production ([1]; 50 μM inhibitor): severely inhibited
- inhibition of 2DL4-induced IFN-gamma production ([2]; concentration not given): only a partial inhibitory effect
